From US9012407B2, “Therapies which act on neuropeptide S receptors” (The Regents of the University of California, priority 2004, dated 2015)

What was measured:
[1] = system: C57Bl/6 mice; assay: Open field test; format: in vivo; details: naive mice, i.c.v.
Description: Naïve mice were tested in the open field, a paradigm of free exploratory behavior in a novel environment. […] In order to further study NPS effects on stress as it relates to anxiety, two additional tests were performed that are based on the natural aversion of rodents to open or unprotected spaces: the light-dark box and the elevated plus maze (FIG. 8B, C).
Male C57Bl/6 mice (National Cancer Institute, Bethesda, MD), age 10-14 weeks, were group-housed (4 animals per cage) under controlled conditions (temperature 21±2° C.; relative humidity 50-60%; 12-hour light-dark cycle, lights on 6:00 AM) with free access to food and water. Prior to drug injections, mice were briefly anesthetized with halothane. NPS was dissolved in phosphate-buffered saline (PBS, pH 7.4) and injected i.c.v. (total volume: 2 μl) as described before (Laursen and Belknap, 1986). […]
(§1) Locomotion was monitored in rectangular plexiglass boxes (60×40×50 cm). Horizontal activity was measured over 60 min by 18×12 infrared sensors placed 2 cm above the floor. […] Marble burying was measured in mice placed individually in polypropylene cages (30×18×12 cm) containing 18 glass marbles (1.5 cm diameter) evenly spaced on 5 cm deep rodent bedding (bed-o'cob, The Andersons Inc., Maumee, Ohio) (Njung'e and Handley, 1991). […] Cages were covered with a metal grid and the number of marbles covered at least two-thirds was counted after 30 min.

[2] = system: C57Bl/6 mice; assay: Marble-burying paradigm; format: in vivo; details: 30 min observation, 18 marbles per cage, i.c.v.
Excerpt: Many anxiolytic drugs increase exploratory activity in the open field, light-dark box or elevated plus maze paradigms. However, compounds stimulating locomotion could produce false-positive effects in these tests because the enhanced exploration could be secondary to the increase in general activity. In order to validate the observed anxiolytic-like effects of NPS, we tested increasing doses of NPS in the marble-burying paradigm. Mice tend to bury objects such as glass marbles present in their environment. Anxiolytic drugs such as benzodiazepines reduce the number of marbles buried over a fixed period of time. […]
as §1

[3] = molecular target: T1, NPSR Ile^107 (Homo sapiens, UniProt Q6W5P4, N107I); assay: CRE-luciferase reporter gene assay, HEK 293 cells, NPSR Ile107; format: cell-based; details: transiently transfected HEK cells
T1 construct: The Ile^107 isoform of NPSR was generated by PCR using synthetic oligonucleotides and the Quik Change Site-Directed Mutagenesis kit from Stratagene; expressed in transfected cells
T1 sequence (Q6W5P4 1-371 N107I): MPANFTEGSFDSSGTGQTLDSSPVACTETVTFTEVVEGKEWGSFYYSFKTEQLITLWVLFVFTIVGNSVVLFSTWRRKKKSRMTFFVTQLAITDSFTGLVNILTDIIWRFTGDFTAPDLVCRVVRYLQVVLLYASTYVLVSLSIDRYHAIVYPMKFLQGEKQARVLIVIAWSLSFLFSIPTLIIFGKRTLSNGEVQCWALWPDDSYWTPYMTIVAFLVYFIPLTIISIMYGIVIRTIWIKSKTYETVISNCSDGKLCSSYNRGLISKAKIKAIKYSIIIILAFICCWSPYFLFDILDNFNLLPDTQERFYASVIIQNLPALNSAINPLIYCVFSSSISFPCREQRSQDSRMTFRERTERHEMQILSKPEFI
Excerpt: (§2) HEK 293 cells were stably transfected with a reporter gene containing 6 copies of a cAMP response element (CRE; sequence […]) in front of a luciferase reporter gene (Promega) cloned into pcDNA3.1 neo. One stable clone showing robust induction of reporter gene expression after forskolin challenge was chosen for further experiments. The different NPSR isoform cDNAs (cloned into pcDNA3.1 hygro) were transfected into these cells using lipofectamine and stable clones were selected. The same cells and procedures were also used for transient transfection. For induction of reporter gene expression cells were plated in 96-well plates and incubated with agonist for 5 hours in serum-free medium, followed by aspiration of the medium and cell lysis with 25 mM Tris-phosphate, pH 7.8, 2 mM dithiothreitol, 2 mM 1,2-diaminocyclohexane-N,N,N′,N′,-tetraacetic acid, 10% glycerol, 1% Triton X-100. After one freeze-thaw cycle aliquots of supernatant were transferred to white clear-bottom 96-well plates (Greiner) and luciferase content was quantified by bioluminescence (Luc-Screen, Applied Biosystems). Plates were counted in a scintillation counter using bioluminescence settings (MicroBeta, Wallac-Perkin Elmer).

[4] = molecular target: T2, NPSR C-alt (Homo sapiens, UniProt Q6W5P4); assay: CRE-luciferase reporter gene assay, HEK 293 cells, NPSR C-alt; format: cell-based; details: transiently transfected HEK cells; read-out: EC50, luciferase reporter induction
T2 construct: The C-terminal splice variant of NPSR (NPSR C-alt, GPRA isoform B); expressed in transfected cells; host or cells: HEK 293 cells carrying the CRE-luciferase reporter, transient transfection, pcDNA3.1 hygro
T2 sequence (Q6W5P4 1-377 isoform Q6W5P4-4): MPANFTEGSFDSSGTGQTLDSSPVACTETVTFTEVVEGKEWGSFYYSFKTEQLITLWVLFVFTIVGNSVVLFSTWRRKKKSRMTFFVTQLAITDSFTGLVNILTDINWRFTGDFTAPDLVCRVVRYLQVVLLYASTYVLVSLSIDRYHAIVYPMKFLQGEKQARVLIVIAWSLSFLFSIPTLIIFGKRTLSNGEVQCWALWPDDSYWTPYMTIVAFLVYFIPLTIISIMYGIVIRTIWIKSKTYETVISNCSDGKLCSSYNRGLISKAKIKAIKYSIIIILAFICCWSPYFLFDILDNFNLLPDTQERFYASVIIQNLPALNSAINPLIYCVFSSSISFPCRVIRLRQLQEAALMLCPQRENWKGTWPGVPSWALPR
Excerpt: as §2

NPS: neuropeptide S, endogenous NPSR ligand; species of the peptide not stated at the place of the result (SFRNGVGTGMKKTSFQRAKS)
number of entries in the central zone ([1]; first 10 minutes): significantly increased
ambulations in the outer zones of the open field ([1]; same doses): increased
number of marbles buried [2]: dose-dependently reduced
maximum of reporter gene expression relative to NPSR WT or NPSR C-alt [3]: about 2 fold
EC50 [4]: 146 ± 15.1 nM
